The record followed here is publication PMC9782297, “Integracides: Tetracyclic Triterpenoids from Fusarium sp.—Their 5-Lipoxygenase Inhibitory Potential and Structure–Activity Relation Using In Vitro and Molecular Docking Studies” (Life, 2022).

In this assay the target is 5-LOX (5-lipoxygenase). Nature of the assay: 5-Lipoxygenase inhibitory assay. Format: biochemical. The following applies: conc. 0.001, 0.01, 1.0 and 10 µM; zileuton positive control; read-out: 5-LOX inhibition IC50. As to the method:
Optical rotation was estimated using a 341LC Perkin-Elmer polarimeter (Perkin-Elmer, Waltham, MA, USA). UV and IR were assessed employing Shimadzu UV/VIS 1601 and IR-400 spectrophotometers (Shimadzu, Kyoto, Japan), respectively. Orbitrap LTQ (ThermoFinnigan, Bremen, Germany) and 850 INOVA BRUKER (Bruker BioSpin, Billerica, MA, USA) were utilized for HRESIMS and NMR measuring. The chromatographic investigation was achieved utilizing SiO260/Sephadex LH-20/RP-18, in addition to a 6-mL RP-18 LiChrolut extraction tube (Merck/Darmstadt/Germany).
IC50s were estimated by regression analysis (GraphPad-InStat 3, GraphPad Software, San Diego, CA, USA). The % 5-LOX inhibition of and IC50s are listed as mean-values ±SD. Statistical significance was analyzed among the samples by one-way-ANOVA and subsequently by Tukey–Kramer test (p < 0.005).

As to `C=C(CC[C@@H](C)[C@H]1CC=C2C3=C([C@@H](O)[C@H](OC(C)=O)[C@@]21C)[C@@]1(C)C[C@@H](O)[C@H](O)C(C)(C)[C@@H]1CC3)C(C)C` [Compound 2, integracide B], the IC50 was found to be 3.97 µM.
As for `C=C(CCC(C)C1CC=C2C3=C(C(O)C(OC(C)=O)C21C)C1(C)CC(O)C(OC(=O)c2ccc(O)cc2)C(C)(C)C1CC3)C(C)C` (stereo not drawn) [Compound 6, integracide J], the IC50 was 2.01 µM.
Next, `C=C(CCC(C)C1CC=C2C3=C(C(O)C(OC(C)=O)C21C)C1(C)CC(O)C(OC(C)=O)C(C)(C)C1CC3)C(C)C` (stereo not drawn) [Compound 3, integracide F]: 2.76 µM; `C=C(CCC(C)C1CC=C2C3=C(C(O)C(OC(C)=O)C21C)C1(C)CC(O)C(OC(=O)CCCCCCCCCO)C(C)(C)C1CC3)C(C)C` (stereo not drawn) [Compound 4, integracide G]: 1.18 µM.
As for `C=C(CCC(C)C1(O)CCC2C3=C(C(O)C(OC(C)=O)C21C)C1(C)CC(O)C(OC(C)=O)C(C)(C)C1CC3)C(C)C` (stereo not drawn) [Compound 1, integracide L], the figure is 3.45 µM; as for `C=C(CCC(C)C1CC=C2C3=C(C(O)C(OC(C)=O)C21C)C1(C)CC(OC(C)=O)C(OC(C)=O)C(C)(C)C1CC3)C(C)C` (stereo not drawn) [Compound 5, integracide H], 1.46 µM.
